What was measured:
Assay in all cases: phosphoenolpyruvate titration of purified optical probe (fluorescence ratio)
Format in all cases: binding
Conditions in all cases: phosphoenolpyruvate 0 to 10 mM, purified probe treated 10 minutes, ex 420/485 nm, em 528 nm
[1] = biological target: T1, Thermus thermophilus TtPFK optical probe 254/256-TtPFK-cpYFP variant, TtPFK S216Y/I253Q/Q254L/G256V/G257L, cpYFP Y1T/N246F (Thermus thermophilus, UniProt P21777, form not given/G256V/G257L/I253Q/Q254L/S216Y)
T1 construct: His-tag; made in house; host or cells: E. coli BL21 (DE3), pCDF vector
T1 sequence (P21777 other isoform, or with tags, fused parts or gaps S216Y, form open): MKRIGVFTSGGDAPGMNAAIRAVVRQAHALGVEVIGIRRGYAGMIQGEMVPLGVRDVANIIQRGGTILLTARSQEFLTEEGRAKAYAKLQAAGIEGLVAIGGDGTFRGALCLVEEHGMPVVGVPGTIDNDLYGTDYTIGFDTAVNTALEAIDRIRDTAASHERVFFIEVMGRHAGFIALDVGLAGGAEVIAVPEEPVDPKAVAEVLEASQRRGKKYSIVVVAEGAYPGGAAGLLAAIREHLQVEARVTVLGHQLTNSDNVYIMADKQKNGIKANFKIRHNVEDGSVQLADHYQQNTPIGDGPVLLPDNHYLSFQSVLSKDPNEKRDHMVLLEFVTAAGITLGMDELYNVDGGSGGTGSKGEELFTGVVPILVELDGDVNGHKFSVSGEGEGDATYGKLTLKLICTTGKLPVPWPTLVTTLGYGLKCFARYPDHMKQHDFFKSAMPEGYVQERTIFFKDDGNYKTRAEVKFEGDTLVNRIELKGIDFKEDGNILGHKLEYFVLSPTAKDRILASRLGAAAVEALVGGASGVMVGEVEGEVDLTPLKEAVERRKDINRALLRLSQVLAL
Method: (§1) • 1. The expression vectors (for example, a phosphoenolpyruvate optical probe expression vector based on pCDF.) were transformed into BL21 (DE3) cells, incubated inverted overnight, and the clones were picked from the plates into 250 mL Erlenmeyer flasks, placed in a shaker at 37 °C and incubated at 220 rpm to OD=0.4-0.8, then 1/1000 (V/V) of IPTG (1 M) was added to induce expression at 18 °C for 24-36 hours. • 2. Upon completion of inducible expression, cells were harvested by centrifugation at 4000 rpm for 30 min, resuspended in 50 mM phosphate buffer and disrupted ultrasonically until the broth were clear, centrifuged at 9600 rpm at 4 °C for 20 min. • 3. The centrifuged supernatant was used to obtain protein by purification through a self-packed nickel column affinity chromatography column, and the protein obtained after nickel column affinity chromatography was further used to obtain protein dissolved in 100 mM HEPES buffer (pH 7.4). • 4. After purified proteins were subjected to SDS-PAGE, probes were diluted to a protein solution having a final concentration of 0.2-5 µM using assay buffer (100 mm HEPES, 100 mM NaCl, pH 7.4). Phosphoenolpyruvate was formulated as a stock solution at a final concentration of 50 mM with the assay buffer (100 mM HEPES, 100 mM NaCl, pH 7.4). • 5. 100 µl 1 µM of protein solution was taken, incubated at 37 °C for 10 min, phosphoenolpyruvate was added for titration, and the fluorescence intensity of 528 nm emission after 420 nm and 485 nm fluorescence excitation of the protein was measured. The fluorescence excitation and emission determination of the samples were done using a multifunctional fluorescence microplate reader. • 6. 100 µl 1 µM of protein solution was taken, incubated at 37 °C for 10 min, and phosphoenolpyruvate was added to determine the absorption and fluorescence spectra of the proteins. Determination of the absorption and fluorescence spectra of the samples was done by spectrophotometer and spectrofluorometer.
(§2) For the 254/255-TtPFK-cpYFP obtained in Example 2 and the 254/255-TtPFK-I253G/Q254L/R255L/G256F-cpYFP-Y1P, 254/255-TtPFK-I253K/Q254L/R255L/G256F-cpYFP-Y1S and 254/256-TtPFK-I253Q/Q254L/G256V/G257L-cpYFP-Y1T/N246F optical probes obtained in Example 6, amino acid were mutated at positions R21, R25, V54, R55, V57, A58, N59, I60, I61, R155, G186, R212, G213, K214, K215, S216 and L320 in the phosphoenolpyruvate binding pocket, and at positions R72, R163, R172 and R246 in the ATP binding pocket to adjust the affinity of the phosphoenolpyruvate optical probe to phosphoenolpyruvate and the substrate specificity. The probes were linearized by reverse PCR, and the sequences of the mutation sites were introduced into the primers. The obtained PCR products were subjected to homologous recombination to obtain plasmids containing the above site mutations. The mutant plasmids were transformed into BL21 (DE3) for induced expression, and the mutant probe proteins were purified for the phosphoenolpyruvate response test. The detection signal of the fusion fluorescent protein containing 2 mM phosphoenolpyruvate was divided by the detection signal of the fusion fluorescent protein without phosphoenolpyruvate. […]

[2] = biological target: T2, Thermus thermophilus TtPFK optical probe 254/256-TtPFK-cpYFP variant, TtPFK N59D/I253Q/Q254L/G256V/G257L, cpYFP Y1T/N246F (Thermus thermophilus, UniProt P21777, form not given/G256V/G257L/I253Q/N59D/Q254L)
T2 construct: His-tag; made in house; host or cells: E. coli BL21 (DE3)
T2 sequence (P21777 other isoform, or with tags, fused parts or gaps N59D, form open): as the sequence (P21777 other isoform, or with tags, fused parts or gaps S216Y, form open) above, with N59D, Y216S counted along it
Method: as §1, §2

[3] = biological target: T3, Thermus thermophilus TtPFK optical probe 254/255-TtPFK-cpYFP variant, TtPFK N59H/I253K/Q254L/R255L/G256F, cpYFP Y1S (Thermus thermophilus, UniProt P21777, form not given/G256F/I253K/N59H/Q254L/R255L)
T3 construct: the numbering corresponds to the full length of the phosphoenolpyruvate-sensitive polypeptide; His-tag; made in house; host or cells: E. coli BL21 (DE3)
T3 sequence (P21777 other isoform, or with tags, fused parts or gaps N59H, form open): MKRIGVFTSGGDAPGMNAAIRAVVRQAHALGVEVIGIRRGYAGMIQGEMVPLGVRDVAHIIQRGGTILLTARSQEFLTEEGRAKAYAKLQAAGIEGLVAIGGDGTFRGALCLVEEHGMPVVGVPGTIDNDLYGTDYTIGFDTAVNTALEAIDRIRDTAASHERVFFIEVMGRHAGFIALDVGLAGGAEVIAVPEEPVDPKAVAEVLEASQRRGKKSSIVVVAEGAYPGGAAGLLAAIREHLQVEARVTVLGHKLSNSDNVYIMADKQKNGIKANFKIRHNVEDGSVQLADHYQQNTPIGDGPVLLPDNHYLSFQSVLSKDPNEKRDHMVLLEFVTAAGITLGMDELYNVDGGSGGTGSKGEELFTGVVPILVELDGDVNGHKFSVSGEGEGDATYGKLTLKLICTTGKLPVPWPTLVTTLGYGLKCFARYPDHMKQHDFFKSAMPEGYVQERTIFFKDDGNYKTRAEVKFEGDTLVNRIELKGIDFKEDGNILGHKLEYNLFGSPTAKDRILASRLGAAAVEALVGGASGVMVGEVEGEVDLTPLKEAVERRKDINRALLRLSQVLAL
Method: as §1, §2

[4] = biological target: T4, Thermus thermophilus TtPFK optical probe 254/256-TtPFK-cpYFP variant, TtPFK K215E/I253Q/Q254L/G256V/G257L, cpYFP Y1T/N246F (Thermus thermophilus, UniProt P21777, form not given/G256V/G257L/I253Q/K215E/Q254L)
T4 construct: the numbering corresponds to the full length of the phosphoenolpyruvate-sensitive polypeptide; His-tag; made in house; host or cells: E. coli BL21 (DE3), pCDF vector
T4 sequence (P21777 other isoform, or with tags, fused parts or gaps K215E, form open): as the sequence (P21777 other isoform, or with tags, fused parts or gaps S216Y, form open) above, with K215E, Y216S counted along it
Method: as §1, §2

[5] = biological target: T5, Thermus thermophilus TtPFK optical probe 254/255-TtPFK-cpYFP variant, TtPFK V54K/I253G/Q254L/R255L/G256F, cpYFP Y1P (Thermus thermophilus, UniProt P21777, form not given/G256F/I253G/Q254L/R255L/V54K)
T5 construct: the numbering corresponds to the full length of the phosphoenolpyruvate-sensitive polypeptide; His-tag; made in house; host or cells: E. coli BL21 (DE3)
T5 sequence (P21777 other isoform, or with tags, fused parts or gaps V54K, form open): as the sequence (P21777 other isoform, or with tags, fused parts or gaps N59H, form open) above, with V54K, H59N, K253G, S255P counted along it
Method: as §1, §2

[6] = biological target: T6, Thermus thermophilus TtPFK optical probe 254/255-TtPFK-cpYFP variant, TtPFK V54Q/I253G/Q254L/R255L/G256F, cpYFP Y1P (Thermus thermophilus, UniProt P21777, form not given/G256F/I253G/Q254L/R255L/V54Q)
T6 construct: the numbering corresponds to the full length of the phosphoenolpyruvate-sensitive polypeptide; His-tag; made in house; host or cells: E. coli BL21 (DE3)
T6 sequence (P21777 other isoform, or with tags, fused parts or gaps V54Q, form open): as the sequence (P21777 other isoform, or with tags, fused parts or gaps N59H, form open) above, with V54Q, H59N, K253G, S255P counted along it
Method: as §1, §2

[7] = biological target: T7, Thermus thermophilus TtPFK optical probe 254/256-TtPFK-cpYFP variant, TtPFK L320F/I253Q/Q254L/G256V/G257L, cpYFP Y1T/N246F (Thermus thermophilus, UniProt P21777, form not given/G256V/G257L/I253Q/L320F/Q254L)
T7 construct: the numbering corresponds to the full length of the phosphoenolpyruvate-sensitive polypeptide; His-tag; made in house; host or cells: E. coli BL21 (DE3), pCDF vector
T7 sequence (P21777 other isoform, or with tags, fused parts or gaps, stated change not applied): as the sequence (P21777 other isoform, or with tags, fused parts or gaps S216Y, form open) above, with Y216S, L565F counted along it
Method: as §1, §2

[8] = biological target: T8, Thermus thermophilus TtPFK optical probe 254/256-TtPFK-cpYFP variant, TtPFK R212M/I253Q/Q254L/G256V/G257L, cpYFP Y1T/N246F (Thermus thermophilus, UniProt P21777, form not given/G256V/G257L/I253Q/Q254L/R212M)
T8 construct: the numbering corresponds to the full length of the phosphoenolpyruvate-sensitive polypeptide; His-tag; made in house; host or cells: E. coli BL21 (DE3)
T8 sequence (P21777 other isoform, or with tags, fused parts or gaps R212M, form open): as the sequence (P21777 other isoform, or with tags, fused parts or gaps S216Y, form open) above, with R212M, Y216S counted along it
Method: as §1, §2

`C=C(OP(=O)(O)O)C(=O)O` [phosphoenolpyruvate, Phosphoenolpyruvate] gave a Kd [1] of 2.36 µM, a Kd [2] of 374 µM and a Kd [3] of 87.7 µM. The Kd [4] was 249 µM, the Kd [5] was 267 µM and the Kd [6] was 769 µM. For the same compound, the Kd [7] was 1770 µM and the Kd [8] was 714 µM.

Source: EP4624497A1, “PHOSPHOEN[…] PROBE, PREPARATION METHOD THEREFOR AND APPLICATION THEREOF” (priority 2022, dated 2024)
